Consider four molecules from US11369111B2, “Synergistic composition of nematicide comprising of chalcones” (priority 2017, dated 2022).

The subject of experiment [1] is P. aeruginosa (Gram negative). Kind of experiment: Effect of chalcones on common microorganisms (CFU on nutrient agar plates). As to conditions: for Effect on microorganism (Colony Forming Units): 24-48 hours. The experiment is classed as cell-based, Pseudomonas aeruginosa. The procedure: (§1) Two common soil microorganisms (Pseudomonas aeruginosa and Bacillus subtilis) and two common laboratory microorganisms (Escherichia coli, and Saccharomyces cerevisiae) were tested for the effects of individual chalcones. Microorganisms were grown on nutrient agar plates containing 10^−4, 10^−5, or 10^−6 M concentrations of chalcones and Colony Forming Units (CFU) were counted after 24-48 hours of growth in nutrient agar plates.

The test system of experiment [2] is B. subtilis (Gram positive). The description is as above. The experiment is classed as cell-based, Bacillus subtilis. As to conditions: for Effect on microorganism (Colony Forming Units): 24-48 hours. As to the method: as §1
In experiment [3] the test system is E. coli (Gram negative). The description is as above. The experiment is classed as cell-based, Escherichia coli. As to conditions: for Effect on microorganism (Colony Forming Units): 24-48 hours. The procedure: as §1
Experiment [4] deals with S. cerevisiae. Described as above. As to conditions: for Effect on microorganism (Colony Forming Units): 24-48 hours. It is filed as cell-based, Saccharomyces cerevisiae. As to the method: as §1
Experiment [5] has as its system Caenorhabditis elegans. As to conditions: 10^−4 M, laboratory conditions, individually; cited from earlier work.
The subject of experiment [6] is cucumber crop. Nature of the experiment: Effect on growth of cucumber plants in a poly house. The experiment is classed as in vivo.
For experiment [7], the system named is root knot nematodes in soil. Nature of the experiment: Effect on root knot nematodes in soil. The experiment is classed as in vivo, Meloidogyne.
Experiment [8] concerns root-knot nematodes. Nature of the experiment: Gall formation in roots of infected cucumber plants (root gall index). The experiment is classed as in vivo.

As to `O=C(/C=C/c1ccccc1)c1ccc(Cl)cc1Cl` [Chalcone 17, (2E)-1-(2,4-Dichlorophenyl)-3-phenyl-2-propen-1-one], the “effect on growth of microorganism” value in experiment [1] and in experiment [2] was “limit the growth” each time. Further, the “Effect on microorganism (Colony Forming Units)” value (“Effect on microorganism” below) in experiment [1] (10^−4 M) was 55.8; in experiment [1] (10^−5 M), 53.9; in experiment [1] (10^−6 M) it was 56.0; in experiment [2] (10^−4 M) it was 69.0; in experiment [2] (10^−5 M), 51.4; in experiment [2] (10^−6 M) it was 50.8. The “Effect on microorganism” value in experiment [3] (10^−4 M) is on record as 115.4; in experiment [3] (10^−5 M), 131.3; in experiment [3] (10^−6 M) it was 97.3; in experiment [4] (10^−4 M) it was 97.0; in experiment [4] (10^−5 M) it was 82.8; in experiment [4] (10^−6 M), 106.7. In experiment [5], the nematicidal activity result was “shown nematicidal activity”.

For the molecule `CCOc1ccc(C(=O)/C=C/c2ccccc2)cc1` [Chalcone 25, (2E)-1-(4-Ethoxyphenyl)-3-phenyl-2-propen-1-one], the “effect on growth of microorganism” value in experiment [1] is “promote the growth”; in experiment [2], “limit the growth”; in experiment [3], “does not affect the growth”; in experiment [4] it was “does not affect the growth”. Further, the “Effect on microorganism” value is 148.8 in experiment [1] (10^−4 M); 148.1 in experiment [1] (10^−5 M); 141.2 in experiment [1] (10^−6 M); 55.1 in experiment [2] (10^−4 M); 55.9 in experiment [2] (10^−5 M); 83.6 in experiment [2] (10^−6 M). For the same molecule, the “Effect on microorganism” value in experiment [3] (10^−4 M) is given as 52.3; in experiment [3] (10^−5 M), 69.6; in experiment [3] (10^−6 M) it was 103.3; in experiment [4] (10^−4 M) it was 97.8; in experiment [4] (10^−5 M), 125.4; in experiment [4] (10^−6 M) it was 90.3. Also, in experiment [5], the nematicidal activity entry was “shown nematicidal activity”.

Turning to `O=C(/C=C/c1ccccc1)c1cccs1` [Chalcone 30, (2E)-3-Phenyl-1-(2-thienyl)-2-propen-1-one], the nematicidal activity result in experiment [5] is listed as “shown nematicidal activity”.

As to `CNC(=O)Oc1cccc2c1OC(C)(C)C2` [Carbofuran], the “increase in shoot length compared to untreated plants” value is reported as “did not show similar positive effect” in experiment [6] (Day 10 (FIG. 3)), “did not have similar positive effect” in experiment [6] (Day 21 (FIG. 4)) and “did not show similar positive effect” in experiment [6] (Day 35 (FIG. 5)). The “increase in leaf length compared to untreated plants” value in experiment [6] (Day 10 (FIG. 6)), in experiment [6] (Day 21 (FIG. 7)) and in experiment [6] (Day 35 (FIG. 8)) was “did not show similar positive effect” each time. In addition, the “increase in number of flowers compared to untreated plants” value in experiment [6] (Day 10 (FIG. 9)), in experiment [6] (Day 21 (FIG. 10)) and in experiment [6] (Day 35 (FIG. 11)) was “did not show similar positive effect” each time. The “increase in number of fruits compared to untreated plants” value in experiment [6] (Day 21 (FIG. 12)), in experiment [6] (Day 21 (FIG. 13)) and in experiment [6] (Day 21 (FIG. 14)) was “did not show similar positive effect” throughout. The “Percentage Change compared to untreated, Average Leaf length” value in experiment [6] (after 28 days of treatment) stood at 6%. Besides, the “Percentage Change compared to untreated, Average Shoot length” value in experiment [6] (after 28 days of treatment) is reported as 3%. Also, the “Percentage Change compared to untreated, Average number of flowers” value in experiment [6] (after 28 days of treatment) is −9%. For the same molecule, the “Percentage Change compared to untreated, Average number of fruits” value in experiment [6] (after 28 days of treatment) is on record as 50%. For the same molecule, in experiment [7] (after 14 days, even at higher dosages), the “effect on nematodes in the soil” value is on record as “did not show any significant effect”. The “efficacy in killing and maintaining a small number of nematodes in soil” value in experiment [7] (after 19 days of treatment (FIG. 17-19)) is given as “do not have the same positive effect”. The “Root gall index (Day 1)” value in experiment [8] (Day 1) turned out to be 1. For the same molecule, the “Root gall index (Day 25 of treatment)” value in experiment [8] (Day 25 of treatment) is recorded as 2 (2=1-25%). Besides, the “Root gall index (Day 45-20 days after second treatment)” value in experiment [8] (Day 45, 20 days after second treatment) was 4 (4=51-75%).
